Laboratory results published in patent publication US20250195416A1, “DISSOLVABLE POLYMERIC OCULAR INSERT FOR DRUGS DELIVERY” (Alcon Inc., priority 2023, published 2025).

Assay: In vitro release of olopatadine from polymer gel films (USP Apparatus 7, HPLC-UV)
Format: physicochemical
Conditions: FIGS. 1A and 1B
Description: Release of olopatadine from polymer gel films was studied in vitro using water or phosphate buffered saline (PBS) as the dissolution media. Dissolution was performed using USP Apparatus 7 and samples were collected by its autosampler. HPLC—with UV-vis detector was used to measure component concentration during dissolution samples at different time points. […] Olopatadine HCl remains as a zwitterion at physiological pH due to the negatively charged carboxylic group and positively charged tertiary amino group on the molecule, therefore possible mechanism of API release from the gel films into dissolution media is through ion exchange. HA in gel films may complex with olopatadine through ionic interaction. […] Dissolution media plays a main role in the release profiles, as ionic bonding occurred between HA and Olopatadine. Ionic polymer provides some prolong release. Diffusion is believed to be the main release mechanism. PBS: phosphate-buffered saline pH 7.2; DI water: deionized water.

SMILES: CN(C)CC/C=C1/c2ccccc2COc2ccc(CC(=O)O)cc21.Cl [olopatadine, 11-[(Z)-3-(Dimethylamino)propylidene]-6-11-dihydrodibenz[b,e] oxepin-2-acetic acid hydrochloride]
- Olopatadine release rate, PBS versus water (dissolution media PBS pH 7.2 or DI water): faster in PBS than in water
- Burst release of olopatadine (water and PBS): no burst release
